Key:
Assay type in all cases: cell-based
Pseudomonas #28 = assay: Minimal Inhibitory Concentration, Pseudomonas #28; conditions: sodium salt
Pseudomonas BRK 12-4-4 = assay: Minimal Inhibitory Concentration, Pseudomonas BRK 12-4-4; conditions: BRK1244, sodium salt
Pseudomonas UI 18 = assay: Minimal Inhibitory Concentration, Pseudomonas UI 18; conditions: UI18, sodium salt
E. Coli Brig = assay: Minimal Inhibitory Concentration, E. Coli Brig; conditions: Escherichia coli, sodium salt
E. Coli Vogel = assay: Minimal Inhibitory Concentration, E. Coli Vogel; conditions: Escherichia coli, sodium salt
Prot Vulg. = assay: Minimal Inhibitory Concentration, Prot Vulg.; conditions: sodium salt
Entero Cloac. IM 11 = assay: Minimal Inhibitory Concentration, Entero Cloac. IM 11; conditions: sodium salt
Serr. Mar. IMM 16 = assay: Minimal Inhibitory Concentration, Serr. Mar. IMM 16; conditions: sodium salt
Klebs. Pneum. MGH 2 = assay: Minimal Inhibitory Concentration, Klebs. Pneum. MGH 2; conditions: sodium salt
Strep. fec. MGH 2 = assay: Minimal Inhibitory Concentration, Strep. fec. MGH 2; conditions: sodium salt
Staph UC76 = assay: Minimal Inhibitory Concentration, Staph UC76; conditions: sodium salt
Staph S 18713 = assay: Minimal Inhibitory Concentration, Staph S 18713; conditions: sodium salt

Structure (SMILES)	MIC (Pseudomonas #28) [µg/mL]	MIC (Pseudomonas BRK 12-4-4) [µg/mL]	MIC (Pseudomonas UI 18) [µg/mL]	MIC (E. Coli Brig) [µg/mL]	MIC (E. Coli Vogel) [µg/mL]	MIC (Prot Vulg.) [µg/mL]	MIC (Entero Cloac. IM 11) [µg/mL]	MIC (Serr. Mar. IMM 16) [µg/mL]	MIC (Klebs. Pneum. MGH 2) [µg/mL]	MIC (Strep. fec. MGH 2) [µg/mL]	MIC (Staph UC76) [µg/mL]	MIC (Staph S 18713) [µg/mL]
CC(=O)N[C@@H](C)C(=O)Nc1ccc2c(=O)c(C(=O)N[C@@H](C(=O)NC3C(=O)N4C(C(=O)O)=C(CSc5nnnn5CS(=O)(=O)O)CSC34)c3ccccc3)c[nH]c2c1 (stereo partly drawn) [Example 1, N-[7-[[L-2-(Acetylamino)-1-oxopropyl]amino]-1,4-dihydro-4-oxo-3-quinolinylcarbonyl]-7-[D-2-amino-2-phenylacetamido]-3-[[(1-sulfomethyl-1H-tetrazol-5-yl)thio]methyl]-3-cephem-4-carboxylic acid]	3.1	6.3	3.1	> 50	0.8	0.8	6.3	3.2	0.8	> 50	6.3	12.5
CC(=O)N[C@@H](C)C(=O)Nc1ccc2c(=O)c(C(=O)N[C@@H](C(=O)NC3C(=O)N4C(C(=O)O)=C(CSc5nnnn5C)CSC34)c3ccc(O)cc3)c[nH]c2c1 (stereo partly drawn) [Example 2, N-[7-[[L-2-(Acetylamino)-1-oxopropyl]amino]-1,4-dihydro-4-oxo-3-quinolinylcarbonyl]-7-[D-2-amino-2-(4-hydroxyphenyl)acetamido]-3-[[(1-methyl-1H-tetrazol-5-yl)thio]methyl]-3-cephem-4-carboxylic acid]	3.1	3.1	6.3	> 50	0.4	3.1	3.1	0.3	0.4	25	3.1	6.3
CC(=O)N[C@@H](C)C(=O)Nc1ccc2c(=O)c(C(=O)N[C@@H](C(=O)NC3C(=O)N4C(C(=O)O)=C(COC(C)=O)CSC34)c3ccc(O)cc3)c[nH]c2c1 (stereo partly drawn) [Example 3, N-[7-[[L-2-(Acetylamino)-1-oxopropyl]amino]-1,4-dihydro-4-oxo-3-quinolinylcarbonyl]-7-[D-2-amino-2-(4-hydroxyphenyl)acetamido]-3-acetoxymethyl-3-cephem-4-carboxylic acid]	3.1	6.3	3.1	12.5	1.6	6.3	12.5	50	1.6	25	3.1	6.3
CC(=O)N[C@@H](CCC(N)=O)C(=O)Nc1ccc2c(=O)c(C(=O)N[C@@H](C(=O)NC3C(=O)N4C(C(=O)O)=C(COC(C)=O)CSC34)c3ccc(O)cc3)c[nH]c2c1 (stereo partly drawn) [Example 4, N-[7-[[L-2-(Acetylamino)-5-amino-1,5-dioxopentyl]amino]-1,4-dihydro-4-oxo-3-quinolinylcarbonyl]-7-[D-2-amino-2-(4-hydroxyphenyl)acetamido]-3-acetoxymethyl-3-cephem-4-carboxylic acid]	3.1	6.3	12.5	> 50	0.8	6.3	12.5	> 50	3.1	25	3.1	6.3
CC(=O)N[C@@H](CCC(N)=O)C(=O)Nc1ccc2c(=O)c(C(=O)N[C@@H](C(=O)NC3C(=O)N4C(C(=O)O)=C(CSc5nnnn5C)CSC34)c3ccc(O)cc3)c[nH]c2c1 (stereo partly drawn) [Example 5, N-[7-[[L-2-(Acetylamino)-5-amino-1,5-dioxopentyl]amino]-1,4-dihydro-4-oxo-3-quinolinylcarbonyl]-7-[D-2-amino-2-(4-hydroxyphenyl)acetamido]-3-[[(1-methyl-1H-tetrazol-5-yl)thio]methyl]-3-cephem-4-carboxylic acid]	3.1	6.3	6.3	> 50	0.4	3.1	3.1	6.3	0.8	25	3.1	6.3
Cn1nnnc1SCC1=C(C(=O)O)N2C(=O)C(NC(=O)[C@H](NC(=O)c3c[nH]c4cc(NC(=O)[C@@H]5CCC(=O)N5)ccc4c3=O)c3ccccc3)C2SC1 (stereo partly drawn) [Example 6, N-[1,4-Dihydro-4-oxo-7-[[(L-5-oxo-2-pyrrolidinyl)carbonyl]amino]-3-quinolinylcarbonyl]-7-[D-2-amino-2-phenylacetamido]-3-[[(1-methyl-1H-tetrazol-5-yl)thio]methyl]-3-cephem-4-carboxylic acid]	6.3	12.5	12.5	6.3	0.8	6.3	6.3	25	1.6	–	0.8	3.1
CC(=O)N[C@@H](C)C(=O)Nc1ccc2[nH]cc(C(=O)N[C@@H](C(=O)NC3C(=O)N4C(C(=O)O)=C(CSc5nnnn5C)CSC34)c3ccccc3)c(=O)c2c1 (stereo partly drawn) [Example 7, N-[6-[[L-2-(Acetylamino)-1-oxopropyl]amino]-1,4-dihydro-4-oxo-3-quinolinylcarbonyl]-7-[D-2-amino-2-phenylacetamido]-3-[[(1-methyl-1H-tetrazol-5-yl)thio]methyl]-3-cephem-4-carboxylic acid]	6.3	12.5	6.3	12.5	1.6	3.1	12.5	25	3.1	–	1.6	6.3
CC(=O)N[C@@H](C)C(=O)Nc1ccc2[nH]c(=O)c(C(=O)N[C@@H](C(=O)NC3C(=O)N4C(C(=O)O)=C(COC(C)=O)CSC34)c3ccc(O)cc3)cc2c1 (stereo partly drawn) [Example 8, N-[6-[[L-2-(Acetylamino)-1-oxopropyl]amino]-1,2-dihydro-2-oxo-3-quinolinylcarbonyl]-7-[D-2-amino-2-(4-hydroxyphenyl)acetamido]-3-acetoxymethyl-3-cephem-4-carboxylic acid]	3.1	6.3	3.1	50	6.3	25	25	> 50	25	–	3.1	6.3
